According to ChEMBL document CHEMBL3853264 (Medchemcomm, 2016):

How the values were obtained:
[1] = Volume of distribution at steady state in dog at 0.1 mg/kg, iv and 3 mg/kg, po; type: ADME, organism-based, Canis lupus familiaris; conditions: in vivo, read-out: Vdss
[2] = Plasma clearance in dog at 0.1 mg/kg, iv and 3 mg/kg, po; type: ADME, organism-based, Canis lupus familiaris
[3] = Unbound clearance in rat at 1 mg/kg, iv and 3 mg/kg, po; type: ADME, organism-based; conditions: in vivo
[4] = Volume of distribution at steady state in rat at 1 mg/kg, iv and 3 mg/kg, po; type: ADME, organism-based; conditions: in vivo, read-out: Vdss
[5] = Unbound clearance in dog at 0.1 mg/kg, iv and 3 mg/kg, po; type: ADME, organism-based, Canis lupus familiaris; conditions: in vivo
[6] = Unbound average plasma concentration in human at >450 mg, bid; type: ADME
[7] = Half life in dog at 0.1 mg/kg, iv and 3 mg/kg, po; type: ADME, organism-based, Canis lupus familiaris; conditions: in vivo
[8] = Oral bioavailability in rat at 3 mg/kg; type: ADME, organism-based; conditions: in vivo
[9] = Lipophilicity, log D of the compound; type: physicochemical; conditions: octanol/water
[10] = Oral bioavailability in dog at 3 mg/kg; type: ADME, organism-based, Canis lupus familiaris; conditions: in vivo
[11] = organism: Homo sapiens; assay: Reduction in serum ureate in human at >450 mg, bid; type: functional; design: scale not given: the % may be the effect or the level left
[12] = Drug level in human hepatocytes treated with 4-(3-chloro-4-(hydroxymethyl)phenoxy)-3-cyano-N-(5-fluoropyridin-2-yl)benzenesulfonamide; type: ADME, cell-based, Hepatocyte
[13] = Drug level in human liver microsomes treated with 4-(3-chloro-4-(hydroxymethyl)phenoxy)-3-cyano-N-(5-fluoropyridin-2-yl)benzenesulfonamide; type: ADME

**Q.** With `Nc1[nH]ncc1-c1cc(Cl)ccc1Oc1cc(F)c(S(=O)(=O)Nc2cscn2)cc1Cl` [PF-05089771] as the compound, how does the Vd [1] read?
**A.** 0.31 L/kg

**Q.** What about the clearance [2] of the same compound?
**A.** 4.8 mL/min/kg

**Q.** And the CL free [3]?
**A.** 447 mL/min/kg

**Q.** What about the Vd [4] of the same compound?
**A.** 1.3 L/kg

**Q.** And the CL free [5]?
**A.** 641 mL/min/kg

**Q.** And the “Cp(f)” value [6]?
**A.** 60 nM

**Q.** And the half-life [7]?
**A.** 1.4 h

**Q.** What about the bioavailability [8] of the same compound?
**A.** 27%

**Q.** What about the logD [9] of the same compound?
**A.** 2.6

**Q.** What about the bioavailability [10] of the same compound?
**A.** 35%

**Q.** What about the Activity [11] of the same compound?
**A.** 50%

**Q.** For `N#Cc1cc(S(=O)(=O)Nc2ccc(F)cn2)ccc1Oc1ccc(C(=O)O)c(Cl)c1`, which Drug metabolism [12] is on record?
**A.** Metabolite_Detected

**Q.** What about the Drug metabolism [13] of the same compound?
**A.** Metabolite_Detected
